In patent US6355799B1, “Substituted benzene compounds, process for their preparation, and herbicidal and defoliant compositions containing them” (ISK Americas Incorporated, priority 1997, dated 2002):

Assays:
Type in all cases: in vivo
[1] = system: redroot pigweed (Amaranthus retroflexus, AMARE); experiment: Pre-emerge test, greenhouse herbicide activity screening; details: pre-emerge, phytotoxicity rating 0-100 at 14 days after application
Method in brief: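 Compounds in acetone were track-sprayed at 187 l/ha, 15–1000 g ai/ha, onto sandy loam pots. Pre-emerge seeds were sown one day before spraying, with surface watering afterwards. Post-emerge plants were at the 2–3 leaf stage and sprayed with 0.25% v/v non-ionic surfactant. Injury was rated 0–100 at 14 days.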

[2] = system: johnsongrass (Sorghum halepense, SORHA); experiment: as above; details: pre-emerge, phytotoxicity rating 0-100 at 14 days after application
Method in brief: (§1)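 Herbicidal damage is scored 0 (none) to 100 (complete plant death) two weeks after a simulated field spray. Rates span 15–1000 g ai/ha, delivered in acetone at 187 l/ha. For post-emergence treatments, plants have 2–3 leaves and the spray carries 0.25% v/v non-ionic surfactant.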

[3] = system: sicklepod (Cassia obtusifolia, CASOB); experiment: as above; details: pre-emerge, phytotoxicity rating 0-100 at 14 days after application
Method in brief: as §1

[4] = system: green foxtail (Setaria viridis, SETVI); experiment: as above; details: pre-emerge, phytotoxicity rating 0-100 at 14 days after application
Method in brief: as §1

[5] = system: barnyardgrass (Echinochloa crus-galli, ECHCG); experiment: as above; details: pre-emerge, phytotoxicity rating 0-100 at 14 days after application
Method in brief: as §1

[6] = system: ivyleaf morningglory (Ipomoea hederacea, IPOHE); experiment: as above; details: pre-emerge, phytotoxicity rating 0-100 at 14 days after application
Method in brief: as §1

[7] = system: velvetleaf (Abutilon theophrasti, ABUTH); experiment: as above; details: pre-emerge, phytotoxicity rating 0-100 at 14 days after application
Method in brief: as §1

[8] = system: large crabgrass (Digitaria sanguinalis, DIGSA); experiment: as above; details: pre-emerge, phytotoxicity rating 0-100 at 14 days after application
Method in brief: as §1

[9] = system: lambsquarters (Chenopodium album, CHEAL); experiment: as above; details: pre-emerge, phytotoxicity rating 0-100 at 14 days after application
Method in brief: as §1

[10] = system: johnsongrass (Sorghum halepense, SORHA); experiment: Post-emerge test, greenhouse herbicide activity screening; details: post-emerge, phytotoxicity rating 0-100 at 14 days after application
Method in brief: (§2)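 Visual ratings on a 0-100 scale (0 no damage, 100 all plants dead) were taken at 14 days after treatment. Rates of 15-1000 g ai/ha in acetone, 187 l/ha, were sprayed onto soil one day after planting (pre-emerge) or onto 2-3 leaf plants with 0.25% v/v surfactant (post-emerge).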

[11] = system: sicklepod (Cassia obtusifolia, CASOB); experiment: as above; details: post-emerge, phytotoxicity rating 0-100 at 14 days after application
Method in brief: as §2

[12] = system: green foxtail (Setaria viridis, SETVI); experiment: as above; details: post-emerge, phytotoxicity rating 0-100 at 14 days after application
Method in brief: as §2

[13] = system: barnyardgrass (Echinochloa crus-galli, ECHCG); experiment: as above; details: post-emerge, phytotoxicity rating 0-100 at 14 days after application
Method in brief: as §2

[14] = system: ivyleaf morningglory (Ipomoea hederacea, IPOHE); experiment: as above; details: post-emerge, phytotoxicity rating 0-100 at 14 days after application
Method in brief: as §2

[15] = system: velvetleaf (Abutilon theophrasti, ABUTH); experiment: as above; details: post-emerge, phytotoxicity rating 0-100 at 14 days after application
Method in brief: as §2

[16] = system: large crabgrass (Digitaria sanguinalis, DIGSA); experiment: as above; details: post-emerge, phytotoxicity rating 0-100 at 14 days after application
Method in brief: as §2

[17] = system: redroot pigweed (Amaranthus retroflexus, AMARE); experiment: as above; details: post-emerge, phytotoxicity rating 0-100 at 14 days after application
Method in brief: as §2

[18] = system: lambsquarters (Chenopodium album, CHEAL); experiment: as above; details: post-emerge, phytotoxicity rating 0-100 at 14 days after application
Method in brief: as §2

[19] = system: field corn (Zea mays L., var. Dekalb 535, CORN); experiment: Pre-emerge test, crop safety; details: crop damage, pre-emerge, phytotoxicity rating 0-100 at 14 days after application
Method in brief: (§3)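 Rating: 0–100 visual injury, 14 DAA. Application: acetone, 187 l/ha, 15–1000 g ai/ha, flat-fan track sprayer with nozzle 40–45 cm above soil or canopy. Post-emerge runs used 0.25% v/v surfactant on 2–3 leaf plants.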

[20] = system: upland rice (Oryza sp., var. Tebonnet, RICE); experiment: Pre-emerge test, crop safety; details: crop damage, pre-emerge, phytotoxicity rating 0-100 at 14 days after application
Method in brief: as §3

[21] = system: field corn (Zea mays L., var. Dekalb 535, CORN); experiment: Post-emerge test, crop safety; details: post-emerge, crop damage rating 0-100 at 14 days after application
Method in brief: as §1

[22] = system: upland rice (Oryza sp., var. Tebonnet, RICE); experiment: Post-emerge test, crop safety; details: post-emerge, crop damage rating 0-100 at 14 days after application
Method in brief: as §1

Cc1c(Cl)cc(F)c(-n2c(=O)cc(C(F)(F)F)n(C)c2=O)c1NC(=O)OCc1ccc(Cl)cc1 [4-61]
Pre-emerge Herbicidal Activity AMARE ([1]; rate 63 g ai/ha): 100
Pre-emerge Herbicidal Activity AMARE ([1]; rate 250 g ai/ha): 100
Pre-emerge Herbicidal Activity SORHA ([2]; rate 63 g ai/ha): 20
Pre-emerge Herbicidal Activity SORHA ([2]; rate 250 g ai/ha): 50
Pre-emerge Herbicidal Activity CASOB ([3]; rate 63 g ai/ha): 40
Pre-emerge Herbicidal Activity CASOB ([3]; rate 250 g ai/ha): 30
Pre-emerge Herbicidal Activity SETVI ([4]; rate 63 g ai/ha): 80
Pre-emerge Herbicidal Activity SETVI ([4]; rate 250 g ai/ha): 75
Pre-emerge Herbicidal Activity ECHCG ([5]; rate 63 g ai/ha): 30
Pre-emerge Herbicidal Activity ECHCG ([5]; rate 250 g ai/ha): 50
Pre-emerge Herbicidal Activity IPOHE ([6]; rate 63 g ai/ha): 30
Pre-emerge Herbicidal Activity IPOHE ([6]; rate 250 g ai/ha): 60
Pre-emerge Herbicidal Activity ABUTH ([7]; rate 63 g ai/ha): 60
Pre-emerge Herbicidal Activity ABUTH ([7]; rate 250 g ai/ha): 70
Pre-emerge Herbicidal Activity DIGSA ([8]; rate 63 g ai/ha): 50
Pre-emerge Herbicidal Activity DIGSA ([8]; rate 250 g ai/ha): 90
Pre-emerge Herbicidal Activity CHEAL ([9]; rate 63 g ai/ha): 100
Pre-emerge Herbicidal Activity CHEAL ([9]; rate 250 g ai/ha): 100
Post-emerge Herbicidal Activity SORHA ([10]; 63 g ai/ha): 50
Post-emerge Herbicidal Activity SORHA ([10]; 250 g ai/ha): 70
Post-emerge Herbicidal Activity CASOB ([11]; 63 g ai/ha): 100
Post-emerge Herbicidal Activity CASOB ([11]; 250 g ai/ha): 100
Post-emerge Herbicidal Activity SETVI ([12]; 63 g ai/ha): 70
Post-emerge Herbicidal Activity SETVI ([12]; 250 g ai/ha): 80
Post-emerge Herbicidal Activity ECHCG ([13]; 63 g ai/ha): 40
Post-emerge Herbicidal Activity ECHCG ([13]; 250 g ai/ha): 60
Post-emerge Herbicidal Activity IPOHE ([14]; 63 g ai/ha): 100
Post-emerge Herbicidal Activity IPOHE ([14]; 250 g ai/ha): 100
Post-emerge Herbicidal Activity ABUTH ([15]; 63 g ai/ha): 100
Post-emerge Herbicidal Activity ABUTH ([15]; 250 g ai/ha): 100
Post-emerge Herbicidal Activity DIGSA ([16]; 63 g ai/ha): 50
Post-emerge Herbicidal Activity DIGSA ([16]; 250 g ai/ha): 70
Post-emerge Herbicidal Activity AMARE ([17]; 63 g ai/ha): 100
Post-emerge Herbicidal Activity AMARE ([17]; 250 g ai/ha): 100
Post-emerge Herbicidal Activity CHEAL ([18]; 63 g ai/ha): 100
Post-emerge Herbicidal Activity CHEAL ([18]; 250 g ai/ha): 100
Pre-emerge Herbicidal Activity CORN ([19]; rate 63 g ai/ha): 0
Pre-emerge Herbicidal Activity CORN ([19]; rate 250 g ai/ha): 0
Pre-emerge Herbicidal Activity RICE ([20]; rate 63 g ai/ha): 0
Pre-emerge Herbicidal Activity RICE ([20]; rate 250 g ai/ha): 50
Post-emerge Herbicidal Activity CORN ([21]; 63 g ai/ha): 50
Post-emerge Herbicidal Activity CORN ([21]; 250 g ai/ha): 70
Post-emerge Herbicidal Activity RICE ([22]; 63 g ai/ha): 40
Post-emerge Herbicidal Activity RICE ([22]; 250 g ai/ha): 80
